Experimental data published in patent US6362166B1, “Antipicornaviral compounds and methods for their use and preparation” (Agouron Pharmaceuticals, Inc., priority 1996, dated 2002).
Where two headings read alike, the source gives them in different places.

Experiments:
HRV-14 = test: Antirhinoviral HI-HeLa Cell Culture Assay (Cell Protection Assay, XTT dye reduction); type: cell-based, human rhinovirus (HRV) serotype-14; details: HI-HeLa cells infected with HRV-14, m.o.i. 0.13; two days; XTT; read-out: EC50
Protocol: In the Cell Protection Assay, the ability of compounds to protect cells against HRV infection was measured by the XTT dye reduction method. This method is described in Weislow, O. S., R. Kiser, D. L. Fine, J. Bader, R. H. Shoemaker, and M. R. Boyd, J. Natl. Cancer Inst. 1989, 81, 577-586, which is incorporated herein by reference.
(§1) HI-HeLa cells were infected with HRV-14 at a multiplicity of infection (m.o.i.) of 0.13 (virus particles/cell) or mock-infected with medium only. Infected or mock-infected cells were resuspended at 8×10^5 cells per mL and incubated with appropriate concentration of compounds of formulas I and II. Two days later, XTT/PMS was added to test plates and the amount of formazan produced was quantified spectrophotometrically at 450/650 nm. […] The therapeutic index (TI) was calculated by dividing the CC50 by the EC50.
(§2) All strains of human rhinovirus (HRV) for use in this assay were purchased from American Type Culture Collection (ATCC), except for HRV serotype-14, which was produced from the infectious cDNA clone, constructed and supplied to us by Dr. Roland Rueckert at the Institue for Molecular Virology, University of Wisconsin, Madison, Wisc. HRV stocks were propagated, and antiviral assays were perforemd in HI-HeLa cells (ATCC). Cells were grwon in Minimal Essential Medium, available from Life Technologies, with 10% fetal bovine serum.
The compounds were tested against control compounds WIN 51711, WIN 52084, and WIN 54954, all obtained from Sterling-Winthrop Pharmaceuticals, and control compound Pirodavir, obtained from Janssen Pharmaceuticals.

[1] = molecular target: T1, Recombinant Rhinovirus 3C protease (RVP) serotype-14 (Human rhinovirus 14, UniProt P03303); test: Inhibition of Rhinovirus Protease (fluorescence resonance energy transfer assay), serotype 14; type: biochemical, human rhinovirus (HRV); details: for kobs/I: progress curves in enzyme start experiments; for INHIB (percent inhibition): 10 minute preincubation with 50 nM RVP
T1 construct: Recombinant Rhinovirus 3C proteases from serotypes 14, 16, 2 or 89; made in house
Protocol: Stock solution (50 mM, in DMSO) of various compounds were prepared; dilutions were in the same solvent. […] Assays contained 2% DMSO, 50 mM tris pH 7.6, 1 mM EDTA, a compound at the indicated concentrations, approximately 1 μM substrate, and 50-100 nM protease. […] The kobs/I values were obtained from reactions initiated by addition of enzyme rather than substrate. RVP activity is measured in the fluorescence resonance energy transfer assay. […] In the uncleaved peptide, the EDANS fluorescence was quenched by the proximal DABCYL moeity. When the peptide was cleaved, the quenching was relieved, and activity was measured as an increase in fluorescence signal.
In the above table, all data is RVP serotype-14 unless otherwise noted in parentheses. All strains of human rhinovirus (HRV) were purchased from American Type Culture Collection (ATCC), except for serotype 14, which was produced from the infectious cDNA clone constructed and supplied to us by Dr. Roland Rueckert at the Institute for Molecular Virology, University of Wisconsin, Madison, Wisc. […] The data in the column designated kobs/I was measured from progress curves in enzyme start experiments.

HI-HeLa cells = test: Cytotoxicity in mock-infected HI-HeLa cells (antirhinoviral assay, XTT); type: cell-based
Protocol: as §1, §2

[2] = RVP serotype-14, 10 minute preincubation, substrate start, read-out: INHIB (Ki)
[3] = RVP serotype-14, 10 μM compound
[4] = mock-infected HI-HeLa cells, two days, XTT, read-out: CC50

T1 sequence (P03303 1538-1719): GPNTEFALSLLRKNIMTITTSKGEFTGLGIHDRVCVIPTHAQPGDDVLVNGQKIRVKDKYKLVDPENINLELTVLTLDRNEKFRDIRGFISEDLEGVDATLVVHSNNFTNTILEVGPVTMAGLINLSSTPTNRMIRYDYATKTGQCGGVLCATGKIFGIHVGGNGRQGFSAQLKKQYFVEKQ

SMILES | EC50 (HRV-14) [µM] | kobs/I ([1]; RVP serotype-14) | CC50 (HI-HeLa cells) [µM] | CC50 (HI-HeLa cells; [4]) [µM] | other results
CCOC(=O)/C=C/[C@H](CCC(N)=O)NC(=O)[C@H](Cc1ccc(F)cc1)NC(=O)[C@@H](NC(=O)SC1CCCC1)C(C)(C)C [Compound 176, Ethyl-3-[Cyclopentylthiocarbonyl-L-α-(t-Butyl-Gly)-L-(4-F-Phe)-L-Gln]-E-Propenoate] | 0.14 | 240,000 M-1 sec-1 | > 100 |  | Ki [1, 2]: 0.48 µM
CCOC(=O)/C=C/[C@H](CCC(N)=O)NC(=O)[C@H](CC(C)C)NC(=O)[C@H](CC(C)C)NC(=O)OCc1ccccc1 [Compound 141] | 5.4 | 2,309 M-1 sec-1 | > 320 |  | 
CCCS(=O)(=O)N[C@@H](Cc1ccccc1)C(=O)N[C@H](/C=C/C(=O)OCC)CCC(N)=O [Compound 31, Ethyl-3-[N-(Propylsulfonyl)-L-Phe-L-Gln]-E-Propenoate] | 50.1 | 21 M⁻¹ s⁻¹ | > 100 |  | INHIB (percent inhibition) [1, 3]: 25(10) percent
CCOC(=O)/C=C/[C@H](CCC(N)=O)NC(=O)CNC(=O)[C@H](CC(C)C)NC(=O)OCc1ccccc1 [Compound 99] | 141 |  | > 320 |  | INHIB (percent inhibition) ([1]; RVP serotype-14): 10 (50) percent
CC(=O)N1CC/C(=C\[C@H](CCC(N)=O)NC(=O)[C@H](Cc2ccc(F)cc2)NC(=O)[C@H](CSc2ccccc2)NC(=O)SC2CCCC2)C1=O [Compound 181] | 0.1 | 1,000,000 M-1 sec-1 | > 100 |  | 
CC(C)C[C@H](NC(=O)OCc1ccccc1)C(=O)N[C@@H](Cc1ccccc1)C(=O)N[C@H](/C=C/C(=O)N1CCc2cc(Cl)ccc21)CCC(N)=O [Compound 92] | 5.6 | 445 M⁻¹ s⁻¹ |  | 56 | 
Cc1cc(CCCCCCCOc2ccc(C3=N[C@@H](C)CO3)cc2)on1 [WIN 52084, reference compound] | 0.07 |  |  | > 10 | 
CCOC(=O)/C=C/[C@H](CCC(N)=O)NC(=O)[C@H](Cc1ccccc1)NC(=O)[C@H](CC(C)C)NC(=O)C1CCCC1 [Compound 116] | 0.6 | 23,670 M-1 sec-1 | > 320 |  | 
CC(C)C[C@H](NC(=O)OCc1ccccc1)C(=O)N[C@@H](Cc1ccccc1)C(=O)N[C@H](/C=C/C=O)CCC(N)=O [Compound 81] | 8 | 124,000 M-1 sec-1 |  | 112 | 
CCOC(=O)/C(F)=C\[C@H](CCC#N)NC(=O)[C@H](Cc1ccccc1)NC(=O)[C@H](CC(C)C)NC(=O)OCc1ccccc1 [Compound 1, Ethyl-2-Fluoro-3-[CBZ-L-Leu-L-Phe-L-(Cyanomethyl)-Ala]-E-Propenoate] |  |  |  |  | INHIB (percent inhibition) ([1]; RVP serotype-14): 77 (50) percent
CCOC(=O)C=CC(CCC(N)=O)NC(=O)C(Cc1ccccc1)NC(=O)C(NC(=O)SC1CCCC1)C(C)(C)[S+](C)[O-] (mixture of isomers) [Compound 179, Ethyl-3-(Cyclopentylthiocarbonyl-L-[S(O)-Me-Pen]-L-Phe-L-Gln)-E-Propenoate] | 1.78 | 300,000 M-1 sec-1 | > 100 |  | Ki [1, 2]: 0.36 µM
CSc1cccc2c1N(C(=O)/C=C/[C@H](CCC(N)=O)NC(=O)[C@H](Cc1ccccc1)NC(=O)[C@H](CC(C)C)NC(=O)OCc1ccccc1)CC2 [Compound 96] | 19.1 | 300 M⁻¹ s⁻¹ |  | 100 | 
CCOC(=O)/C=C/[C@H](CCC(N)=O)NC(=O)[C@H](Cc1ccc(F)cc1)NC(=O)[C@@H](NC(=O)SC1CCCC1)C(C)(C)Sc1ccc([N+](=O)[O-])cc1 [Compound 185] | 0.5 | 600,000 M-1 sec-1 | > 100 |  | 
CC(C)C[C@H](NC(=O)OCc1ccccc1)C(=O)N[C@@H](Cc1ccccc1)C(=O)N[C@H](/C=C/C(=O)c1ccco1)CCC(N)=O [Compound 49] | 2.4 | 460,000 M-1 sec-1 | 19.1 |  | 
CCOC(=O)/C=C/[C@H](CCC(N)=O)NC(=O)[C@H](Cc1ccccc1)NS(=O)(=O)c1ccccc1 [Compound 34, Ethyl-3-[N-(Phenylsulfonyl)-L-Phe-L-Gln]-E-Propenoate] | 100 | 34 M⁻¹ s⁻¹ |  | > 100 | INHIB (percent inhibition) [1, 3]: 10(10) percent
Cc1cc(CCCCCCCOc2ccc(C3=NCCO3)cc2)on1 [WIN 51711, reference compound] | 0.78 |  |  | > 60 | 
CCOC(=O)/C=C/[C@H](CCC(N)=O)NC(=O)[C@@H](NC(=O)[C@H](CC(C)C)NC(=O)OCc1ccccc1)C(C)O (stereo partly drawn) [Compound 134] | 56.2 | 1,769 M-1 sec-1 | > 320 |  | 
COCCOC(=O)/C=C/[C@H](CCC(N)=O)NC(=O)[C@H](Cc1ccc(C)cc1)NC(=O)[C@@H](NC(=O)SC1CCCC1)C(C)(C)C [Compound 188] |  |  |  |  | Ki [1]: 0.16 µM; kinact/KI ([1]; pH 7.6, read-out: kobs/I): 580000 M⁻¹ s⁻¹
COc1ccc(C(=O)/C=C/[C@H](CCC(N)=O)NC(=O)[C@H](Cc2ccccc2)NC(=O)[C@H](CC(C)C)NC(=O)OCc2ccccc2)cc1 [Compound 42] | 22.4 | 150,000 M-1 sec-1 | 100 |  | 
CCOC(=O)/C=C/[C@H](CCC(N)=O)NC(=O)[C@H](Cc1ccccc1)NC(=O)[C@H](CC(C)C)NC(=O)OC [Compound 110] | 1.3 | 9,072 M-1 sec-1 | > 320 |  | 
CCOC(=O)/C=C/[C@H](CCC(N)=O)NC(=O)[C@H](Cc1ccccc1)NC(=O)[C@H](C)NC(=O)OCc1ccccc1 [Compound 101] | 2 | 11,288 M-1 sec-1 |  | > 320 | 
Cc1ccc(CC(NC(=O)C(NC(=O)SC2CCCC2)C(C)(C)C)C(=O)NC(C=CC(=O)OCc2ccccc2)CCC(N)=O)cc1 (stereo not drawn) [Compound 186] |  | 950,000 M-1 sec-1 |  |  | 
CCOC(=O)/C=C/[C@H](CCC(N)=O)NC(=O)[C@H](Cc1ccccc1)NS(=O)(=O)CC [Compound 33, Ethyl-3-[N-(Ethylsulfonyl)-L-Phe-L-Gln]-E-Propenoate] |  | 33 M⁻¹ s⁻¹ | > 100 |  | INHIB (percent inhibition) [1, 3]: 24(10) percent
CC(C)C[C@H](NC(=O)OCc1ccccc1)C(=O)N[C@@H](Cc1ccccc1)C(=O)N[C@H](/C=C/CSc1ccccn1)CCC(N)=O [Compound 75] | 5 |  | > 100 |  | 
C/C(=C\[C@H](CCC(N)=O)NC(=O)[C@H](Cc1ccccc1)NC(=O)[C@H](CC(C)C)NC(=O)OCc1ccccc1)C(=O)O [Compound 144] | 104 |  | > 320 |  | 
CCOC(=O)/C=C/[C@H](CCC(N)=O)NC(=O)[C@H](Cc1ccc(C)cc1)NC(=O)[C@@H](NC(=O)OC1CCCC1)C(C)(C)C [Compound 190] |  | 29,230 M-1 sec-1 |  |  | 
CCOP(=O)(/C=C/[C@H](CCC(N)=O)NC(=O)[C@H](Cc1ccccc1)NC(=O)[C@H](CC(C)C)NC(=O)OCc1ccccc1)OCC [Compound 20, Diethyl-[2-(CBZ-L-Leu-L-Phe-L-Gln)-E-Vinyl] Phosphonate] | > 320 |  |  | > 320 | 
CC(=O)N1CC/C(=C\[C@H](CCC(N)=O)NC(=O)[C@H](Cc2ccc(F)cc2)NC(=O)[C@@H](NC(=O)SC2CCCC2)C(C)(C)C)C1=O [Compound 189] |  | 386,000 M-1 sec-1 |  |  | 
CC(C)C[C@H](NC(=O)OCc1ccccc1)C(=O)N[C@@H](Cc1ccccc1)C(=O)NC(/C=C/C#N)CCC(N)=O (mixture of isomers) [Compound 14, 3-(CBZ-L-Leu-L-Phe-DL-Gln)-E-Propenonitrile] | 17.8 |  | 500 |  | 
CCOC(=O)/C=C/[C@H](CCC(N)=O)NC(=O)[C@H](Cc1ccc(C)cc1)NC(=O)[C@@H](NC(=O)SC1CCCC1)C(C)(C)C [Compound 174, Ethyl-3-[Cyclopentylthiocarbonyl-L-α-(t-Butyl-Gly)-L-(4-Me-Phe)-L-Gln]-E-Propenoate] | 0.056 |  |  | > 100 | 
